Laboratory results published in patent US20130302282A1, “Inhibitors of Hepatitis C Virus” (priority 2010, published 2013).
Where two headings read alike, the source gives them in different places.

System: 1b_Huh-Luc/Neo-ET cell line (bicistronic genotype 1b replicon in Huh 7 cells)
Assay: HCV 1b replicon assay, luciferase readout
Assay type: cell-based, HCV genotype 1b
Procedure: Biological activity of the compounds of the invention was determined using an HCV replicon assay. The 1b_Huh-Luc/Neo-ET cell line persistently expressing a bicistronic genotype 1b replicon in Huh 7 cells was obtained from ReBLikon GMBH. This cell line was used to test compound inhibition using luciferase enzyme activity readout as a measurement of compound inhibition of replicon levels.
On Day 1 (the day after plating), each compound is added in triplicate to the cells. Plates incubated for 72 […] prior to running the luciferase assay. Enzyme activity was measured using a Bright-Glo Kit (cat. number E2620) manufactured by Promega Corporation. The following equation was used to generate a percent control value for each compound.
%Control=(Average Compound Value/Average Control)*100
The EC50 value was determined using GraphPad Prism and the following equation:
Y=Bottom+(Top−Bottom)/(1+10̂((LogIC50−X)*HillSlope))
EC50 values of compounds are repeated several times in the replicon assay.

[1] = Hepatitis C virus, Huh-7, 1b_Huh-Luc/Neo-ET cell line, read-out: EC50, half-maximal inhibition of HCV 1b replication
[2] = Hepatitis C virus, Huh-7, class symbol, HCV genotype 1b replicon, read-out: Inhibition of HCV genotype 1b replicon
[3] = class symbol, HCV genotype 1b replicon, read-out: Inhibition of HCV genotype 1b replicon

Row | Structure (SMILES) | EC50 [1] | EC50 [2] | EC50 [3]
1 | CNC(=O)c1c(-c2ccc(F)cc2)oc2cc3c(cc12)C(C)OC(C)CN3S(C)(=O)=O (centres unmarked) [Compound B190] | ≤ 10 nM | < 10 nM | –
2 | CNC(=O)c1c(-c2ccc(Oc3ccc(F)cc3)cc2)oc2cc3c(cc12)C(C)OC(CO)CN3S(C)(=O)=O (centres unmarked) [Compound B191] | – | – | < 10 nM
3 | CNC(=O)c1c(-c2ccc(F)cc2)oc2cc3c(cc12)C(C)OC(CO)CN3S(C)(=O)=O (centres unmarked) [Compound B195] | 10 to 100 nM | 10 to 100 nM | –
4 | CNC(=O)c1c(-c2ccc(F)cc2)oc2cc3c(cc12)C(C)OC(CS(C)(=O)=O)CN3S(C)(=O)=O (centres unmarked) [Compound B196] | ≤ 10 nM | < 10 nM | –
5 | CC1CCCN(S(C)(=O)=O)c2cc3oc(-c4ccc(Oc5ccc(F)cc5)cc4)c(-c4ncc[nH]4)c3cc21 (centres unmarked) [Compound B198] | ≤ 10 nM | < 10 nM | –
6 | CNC(=O)c1c(-c2ccc(F)cc2)oc2cc3c(cc12)C(C)c1ccccc1CN3S(C)(=O)=O (centres unmarked) [Compound B199] | 10 to 100 nM | 10 to 100 nM | –
7 | CNC(=O)c1c(-c2ccc(F)cc2)oc2cc3c(cc12)CCc1ccccc1CN3S(C)(=O)=O [Compound B200] | 10 to 100 nM | 10 to 100 nM | –
8 | CC1OCCN(S(C)(=O)=O)c2cc3oc(-c4ccc(Oc5ccc(F)cc5)cc4)c(-c4ncc[nH]4)c3cc21 (centres unmarked) [Compound B202] | 10 to 100 nM | 10 to 100 nM | –
9 | CNC(=O)c1c(-c2ccc(F)cc2)oc2cc3c(cc12)C(C)OC(CN1CCOCC1)CN3S(C)(=O)=O (centres unmarked) [Compound B205] | 10 to 100 nM | 10 to 100 nM | –
10 | CNC(=O)c1c(-c2ccc(Oc3ccc(F)cc3)cc2)oc2cc3c(cc12)[C@@H](C)O[C@@H](CS(C)(=O)=O)CN3S(C)(=O)=O [Compound B206] | – | 100 to 1000 nM | –
11 | CNC(=O)c1c(-c2ccc(F)cc2)oc2cc3c(cc12)C(C)O[C@@H](c1ccc(F)cc1)CN3S(C)(=O)=O (some centres unmarked) [Compound B210] | 10 to 100 nM | 10 to 100 nM | –
12 | CNC(=O)c1c(-c2ccc(F)cc2)oc2cc3c(cc12)[C@@H](C)O[C@@H](CO)CN3S(C)(=O)=O [Compound B211] | – | > 1000 nM | –
13 | CNC(=O)c1c(-c2ccc(F)cc2)oc2cc3c(cc12)[C@@H](C)O[C@@H](CS(C)(=O)=O)CN3S(C)(=O)=O [Compound B213] | – | > 1000 nM | –
14 | CNC(=O)c1c(-c2ccc(F)cc2)oc2cc3c(cc12)[C@H](C)O[C@H](CS(C)(=O)=O)CN3S(C)(=O)=O [Compound B215] | 10 to 100 nM | – | 10 to 100 nM
15 | CNC(=O)c1c(-c2ccc(Oc3ccc(F)cc3)cc2)oc2cc3c(cc12)[C@H](C)O[C@H](CS(C)(=O)=O)CN3S(C)(=O)=O [Compound B216] | 10 to 100 nM | – | 10 to 100 nM
16 | CNC(=O)c1c(-c2ccc(F)cc2)oc2cc3c(cc12)[C@@H](C)O[C@H](CO)CN3S(C)(=O)=O [Compound B217] | 10 to 100 nM | 10 to 100 nM | –
17 | CNC(=O)c1c(-c2ccc(F)cc2)oc2cc3c(cc12)C(C)OC(CN=[N+]=[N-])CN3S(C)(=O)=O (centres unmarked) [Compound B218] | ≤ 10 nM | < 10 nM | –
18 | CNC(=O)c1c(-c2ccc(F)cc2)oc2cc3c(cc12)C(C)OCC(CO)N3S(C)(=O)=O (centres unmarked) [Compound B219] | 10 to 100 nM | 10 to 100 nM | –
19 | CNC(=O)c1c(-c2ccc(F)cc2)oc2cc3c(cc12)C(C)OC(CNS(C)(=O)=O)CN3S(C)(=O)=O (centres unmarked) [Compound B220] | 10 to 100 nM | 10 to 100 nM | –
20 | CNC(=O)c1c(-c2ccc(F)cc2)oc2cc3c(cc12)C(C)OC(CNC(=O)OC)CN3S(C)(=O)=O (centres unmarked) [Compound B221] | ≤ 10 nM | < 10 nM | –
21 | CNC(=O)c1c(-c2ccc(F)cc2)oc2cc3c(cc12)C(C)OC(CN(C)C)CN3S(C)(=O)=O (centres unmarked) [Compound B222] | 10 to 100 nM | 10 to 100 nM | –
22 | CNC(=O)c1c(-c2ccc(F)cc2)oc2cc3c(cc12)C(C)OC(C(=O)N(C)C)CN3S(C)(=O)=O (centres unmarked) [Compound B223] | 10 to 100 nM | 10 to 100 nM | –
23 | CNC(=O)c1c(-c2ccc(Oc3ccc(F)cc3)cc2)oc2cc3c(cc12)[C@H](C)O[C@@H](CS(C)(=O)=O)CN3S(C)(=O)=O [Compound B224] | 10 to 100 nM | 10 to 100 nM | –
24 | CNC(=O)c1c(-c2ccc(F)cc2)oc2cc3c(cc12)C(C)OCC(CS(C)(=O)=O)N3S(C)(=O)=O (centres unmarked) [Compound B225] | 10 to 100 nM | 10 to 100 nM | –
25 | CNC(=O)c1c(-c2ccc(F)cc2)oc2cc3c(cc12)C(C)OC(CC#N)CN3S(C)(=O)=O (centres unmarked) [Compound B226] | ≤ 10 nM | < 10 nM | –
26 | CNC(=O)c1c(-c2ccc(F)cc2)oc2cc3c(cc12)C(C)OC(C(=O)N1CCCC1)CN3S(C)(=O)=O (centres unmarked) [Compound B227] | 10 to 100 nM | 10 to 100 nM | –
27 | CNC(=O)c1c(-c2ccc(F)cc2)oc2cc3c(cc12)C(C)OC(C(=O)N1CCOCC1)CN3S(C)(=O)=O (centres unmarked) [Compound B228] | 10 to 100 nM | 10 to 100 nM | –
